The text below walks through data of US20130096054A1, “LATENT HUMAN IMMUNODEFICIENCY VIRUS REACTIVIATION” (priority 2010, published 2013).

Several values for one entry are separate records, joined by “and”; a condition that tells them apart may be missing. Identical values can stand only once. *1 amine or outer side, *2 acyl side, *3 side chain or, on linkers, in order; H or OH if unused. Where a SMILES comes first, the peptide text is derived from it. Bridges are numbered along the chain shown (N, C = ends). Roman numbers before positions name the chains, in order. [ ]: non-standard residue; d: D form. Actinocin(9to1) = Cc1c2oc3c(C)ccc(C(=O)[*:1])c3nc-2c(C(=O)[*:2])c(N)c1=O; NMeV = CN[C@H](C(=O)O)C(C)C; Sar = CNCC(=O)O

Assay [1] has as its system latently HIV-2 infected J2574 reporter T cells (HIV-2 7312A). In words: Reactivation of latent HIV-2 infection in J2574 reporter T cells. Type of assay: cell-based.
Description: J2574 reporter T cells were infected with HIV-2 7312A and a latently infected cell population was established (>90% latently infected cells). The cell population was then pretreated with varying concentrations of dactinomycin (0-8 ng/ml) for 18 hours and then either left untreated (C) or stimulated with a sub-optimal dose of HRF, which by itself triggered reactivation in 10% of the cells. Reactivation levels were determined 24 hours post HRF activation by quantifying the level of GFP-positive cells using flow cytometric analysis.
J2574 reporter T cells were generated by retrovirally transducing Jurkat T cells with a HIV-1 reporter construct (p2574) in which the HIV-1 LTR controls the expression of GFP. The HIV-1 LTR and the GFP gene are separated by a 2,500 base pair (bp) spacer element. Lentiviral particles were produced by transfecting 293T cells with p2574 and supplying gag-pol-rev-tat in trans. VSV-G was used as viral envelope protein. Following lentiviral transduction of Jurkat cells, all cells that spontaneously expressed GFP were removed by cell sorting. The GFP-negative population was then activated with PMA to identify all cells that would harbor an inducible LTR-GFP-LTR integration event. Cells that turned GFP-positive following stimulation were again selected by cell sorting. GFP expression in this population ceased after a few days leaving a population of GFP-negative reporter cells. The amount of founder cells for this population is calculated to represent >50,000 individual integration events.
To determine the ability of dactinomycin to prime a latent HIV-2 infection, a latently HIV-2 infected population of GFP reporter T cells were tested. Briefly, to create the latent HIV-2 infected population, J2574 reporter cells were infected with HIV-2 7312A and a population of latently HIV-2 infected cells was generated by removing the actively infected, GFP-positive cells using a fluorescence activated cell sorter.
For assay [2], the system named is chronically actively infected T cell lines JNLG#35 and JNLG#44. In words: Active HIV-1 transcription in chronically actively infected GFP-reporter T cells (GFP MCF). It counts as cell-based. As to conditions: 48 hours after addition. The method, then:
Changes in HIV-1 transcription levels were determined after 48 hours by measuring GFP mean channel fluorescence intensity (GFP MCF). GFP MCF was plotted over the drug concentration for dactinomycin (FIG. 12A), the DNA intercalators daunorubicin (DM) (FIG. 12B) and rebeccamycin (RM) (FIG. 12C), as well as the transcription inhibitors ICRF-193 (FIG. 12D), DRB (FIG. 12E) and α-amanitin (FIG. 12F). The size of symbols indicates the respective cell viability in the sample (size range adjusted to 5-95%).
For this purpose, each of the compounds was titrated over a relevant range of concentrations on two chronically actively infected T cell lines (JNLG#35 and JNLG#44). These clonal cell lines are infected with a GFP-reporter virus. Forty eight hours after addition of the compounds, the effect of each compound on HIV-1 transcription was determined by flow cytometric analysis quantifying GFP mean channel fluorescence intensity (MCF).

Assay [3] deals with latently HIV-1 infected EF7 cells. In words: HIV-1 reactivation in latently HIV-1 infected EF7 T cells (converse sense integration). Type of assay: cell-based. The settings on record: TNF-α after 4 ng/ml dactinomycin for 18 hours. The method, then: FIGS. 13A-B show the effect of dactinomycin on latent infection as a function of the orientation of integration relative to the direction of host-gene transcription. HIV-1 can integrate in the same transcriptional orientation as the host-gene or in the converse sense. Two latently HIV-1 infected T cell lines, which were determined to have HIV-1 integrated in the same sense orientation (CA5 cells) (FIG. 13A) and in the converse sense orientation (EF7 cells) (FIG. 13B) were used. For either cell line, the host-gene name, the position of integration and the chromosome number is given. For either T cell line, reactivation levels achieved by TNF-α treatment alone or by TNF-α stimulation following pretreatment with 4 ng/ml dactinomycin for 18 hours are shown. Reactivation levels were determined using flow cytometric analysis for GFP expression. The gray dotted line represents maximum achievable reactivation levels using PMA.

Assay [4] concerns latently HIV-1 infected CA5 T cells. The method, then:
CA5 T cells were pretreated with increasing concentrations of dactinomycin (DM) (FIG. 11A), the DNA intercalator daunorubicin (DR) (FIG. 11B), or the transcription inhibitors DRB (FIG. 11 C) and α-amanitin (FIG. 11D) (concentrations indicated). The cells were then left unstimulated (white circles) or activated with a sub-optimal concentration of HRF (black circles). Reactivation levels were determined as the percentage of GFP-positive cells 24 hours after stimulation. Viability of the cells correlates with the size of the symbol (size range adjusted to 5-95%).
Infection levels in the cell cultures were monitored by flow cytometric analysis of EGFP expression. Flow cytometric analysis was performed on a GUAVA EasyCyte (Millipore; Billerica, Mass.), or a LSRII (Becton & Dickinson; Franklin Lakes, N.J.).
Bacteria from various sources were isolated on TSA II agar plates containing 5% sheep blood. Bacterial isolates were then grown in RPMI 1640 medium supplemented with 10% FBS. After two days of incubation at 37° C. bacteria were pelleted and resuspended in RPMI medium to an optical density (OD600) of 8, aliquoted and frozen at −80° C. Unless otherwise indicated, Massilia timonae was grown in RPMI 1640 medium supplemented with 10% FBS. Typically, medium was inoculated with Massilia timonae from frozen stocks to an OD600 of 0.01. After 48 hours at 37° C., the culture was centrifuged at 3200 g to separate bacteria from the culture medium. Bacteria were resuspended in fresh medium to an OD600 of 8 and frozen to be used as references and stock cultures. The supernatant was then centrifuged at 10,000 g for 20 minutes and sterilized by passage through an 0.2 μm PVDF filter with low protein binding ability. HRF activity was determined by its ability to reactivate latent HIV-1 infection in CA5 cells. Only supernatants of which 6 μl reactivated infection in at least 60% of CA5 cells were used to study HRF properties.
(§1) Infection levels in the cell cultures were monitored by flow cytometric (FCM) analysis of GFP expression. FCM analysis was performed on a GUAVA EasyCyte (GUAVA Technologies, Inc.; Millipore; Billerica, Mass.) and a BD FACSCalibur or a LSR11 (Becton & Dickinson; Franklin Lakes, N.J.). Cell sorting experiments were performed using a FACSAria™ Flow Cytometer (Becton&Dickinson). Data analysis was performed using either CellQuest (Becton&Dickinson) or GUAVA Express (GUAVA Technologies, Inc.).
To identify the optimal concentration of dactinomycin, CA5 T cells were pretreated with increasing concentrations of dactinomycin (0.0001 and 1 μg/ml), and then left untreated or stimulated with a sub-optimal concentration of HRF or TNF-α. […] Twenty four hours after activator addition, levels of HIV-1 reactivation were determined as the percentage of GFP-positive cells using flow cytometric analysis, which allowed for the simultaneous determination of cell viability.

For assay [5], the system named is latently HIV-1 infected J89GFP T cells. In words: HIV-1 reactivation in latently HIV-1 infected J89GFP T cells (flow cytometry / HTS). Type of assay: cell-based. As for the experimental part:
as §1

The test system of assay [6] is latently HIV-1 infected monocytic THP89GFP cells. In words: HIV-1 reactivation in latently HIV-1 infected monocytic THP89GFP cells. Type of assay: cell-based.
For assay [7], the system named is latently HIV-1 infected reporter T cell lines (5F3, 8E12, CA5 and 12D4). In words: HIV-1 reactivation in latently HIV-1 infected reporter T cell lines (EGFP, flow cytometry). Type of assay: cell-based. The method, then:
FIGS. 1A and 1B show culture supernatants from Massilia timonae reactivate latent HIV-1 infection. […] Untreated control cells and HRF-treated cells were subjected to flow cytometric analysis to determine enhanced green fluorescent protein (EGFP) expression as a direct and quantitative marker of HIV-1 expression 24 hours post stimulation. FSC/SSC dot plots are represented to evaluate cell viability as a function of changes in the FSC (cell size)—SSC (granularity) phenotype of the cells. FIG. 1B is a histogram showing the reproducibility of the observed HIV-1 reactivation. Three independent preparations of HRF (batches HRF1-3) on four different latently infected T cell lines (5F3, 8E12, CA5 and 12D4) were tested. The percentage of EGFP positive cells following stimulation is depicted in the histogram. Cell culture supernatants of Pseudomonas aeruginosa cultures, grown under similar conditions, were used as specificity controls.
For orientation: A flow cytometer gives signals particle by particle.

Assay [8] has as its target T1, positive transcription elongation factor (P-TEFb), a complex of CDK9 and Cyclin T1 (UniProt P50750 1-372; O60563 1-726).
T1 construct: also called CDK9/CycT1; small complex
In words: glycerol gradient (10-45%) sedimentation of J89GFP cell lysates, Western blot of fractions with anti-CDK9 and anti-HEXIM-1. As for the experimental part:
Each gradient fraction was separated on a 10% SDS-PAGE gel and transferred by Western blot. […] Band densities were determined using ImageJ and are presented as relative band density. […] Band densities were determined using ImageJ and are presented as relative band density.
Ten million J89GFP or CA5 T cells were left untreated or treated with 0.004 μg/mL, […] 1 μg/mL dactinomycin for 18 hours or 1 hour, respectively. Cells were washed twice with cold PBS, then lysed for 30 minutes on ice in lysis buffer (0.5% TritonX100, 20 mM HEPES (pH7.9), 150 mM NaCl, 20 mM KCl, 2 mM MgCl2, 1 mM DTT, 0.2 mM EDTA, and protease inhibitor cocktail (P8340; SIGMA)), followed by centrifugation at 14,000 rpm for 10 minutes. The same amount of protein lysate was fractionated on 5 ml of a 10-45% glycerol gradient in lysis buffer in a SW-Ti55 rotor (Beckman Coulter; Miami, Fla.) for 16 hours at 45,000 rpm. Fractions were resolved on 10% SDS-PAGE and transferred to polyvinylidene fluoride membrane. The antibodies used for Western blotting were rabbit anti-Cdk9 (sc-484; Santa Cruz Biotechnology; Santa Cruz, Calif.) and rabbit anti-HEXIM1 (ab25388; Abcam; Cambridge, Mass.), respectively. […]
On the technique in general: In western blotting, separated proteins are transferred to a membrane and probed.

T1 sequence (P50750 whole entry, chain 1 of 2): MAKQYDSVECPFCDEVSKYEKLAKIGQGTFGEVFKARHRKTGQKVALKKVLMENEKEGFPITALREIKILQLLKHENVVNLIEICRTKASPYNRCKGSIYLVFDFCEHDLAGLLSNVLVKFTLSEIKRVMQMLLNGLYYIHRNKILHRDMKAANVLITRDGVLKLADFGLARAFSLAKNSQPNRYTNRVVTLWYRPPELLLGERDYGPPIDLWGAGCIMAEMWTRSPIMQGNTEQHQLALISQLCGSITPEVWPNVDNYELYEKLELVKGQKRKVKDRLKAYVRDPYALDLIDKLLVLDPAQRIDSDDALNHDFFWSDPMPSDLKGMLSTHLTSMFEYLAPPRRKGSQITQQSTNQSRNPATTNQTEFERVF
T1 sequence (O60563 whole entry, chain 2 of 2): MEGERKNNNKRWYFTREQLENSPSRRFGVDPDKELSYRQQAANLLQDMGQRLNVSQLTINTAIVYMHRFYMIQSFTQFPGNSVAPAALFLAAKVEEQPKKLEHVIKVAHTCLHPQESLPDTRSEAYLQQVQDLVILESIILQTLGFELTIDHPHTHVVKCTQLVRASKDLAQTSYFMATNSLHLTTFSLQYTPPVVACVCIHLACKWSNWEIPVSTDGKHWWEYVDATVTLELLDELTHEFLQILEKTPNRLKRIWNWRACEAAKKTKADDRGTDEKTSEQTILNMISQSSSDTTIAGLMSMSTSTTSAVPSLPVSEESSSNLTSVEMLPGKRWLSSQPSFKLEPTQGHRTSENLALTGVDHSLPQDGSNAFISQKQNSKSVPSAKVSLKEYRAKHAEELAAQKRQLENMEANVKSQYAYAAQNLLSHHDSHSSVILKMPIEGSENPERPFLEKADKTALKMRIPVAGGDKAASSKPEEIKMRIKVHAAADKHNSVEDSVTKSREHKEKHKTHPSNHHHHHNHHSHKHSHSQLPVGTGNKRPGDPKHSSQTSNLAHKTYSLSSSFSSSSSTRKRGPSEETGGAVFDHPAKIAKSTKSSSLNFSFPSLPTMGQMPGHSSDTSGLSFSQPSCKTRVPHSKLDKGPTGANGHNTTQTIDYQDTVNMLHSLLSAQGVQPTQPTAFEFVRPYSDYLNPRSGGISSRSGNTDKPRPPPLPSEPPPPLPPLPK

As for `Cc1c2oc3c(C)ccc(C(=O)N[C@@H]4C(=O)N[C@H](C(C)C)C(=O)N5CCC[C@H]5C(=O)N(C)CC(=O)N(C)[C@@H](C(C)C)C(=O)O[C@@H]4C)c3nc-2c(C(=O)N[C@@H]2C(=O)N[C@H](C(C)C)C(=O)N3CCC[C@H]3C(=O)N(C)CC(=O)N(C)[C@@H](C(C)C)C(=O)O[C@@H]2C)c(N)c1=O` [dactinomycin] (I: T[dV]P[Sar][NMeV] / II: T[dV]P[Sar][NMeV]; ester I:1-I:C, II:1-II:C; linker I:N-II:N via Actinocin(9to1)), the “concentration range of efficient priming of latent HIV-2 infection” value in assay [1] (18 hours pretreatment, then sub-optimal HRF) was 2 to 8 ng/mL. In addition, in assay [1] (dactinomycin pretreatment plus sub-optimal HRF), the “HIV-2 reactivation levels on costimulation” value is “up to 90%”. Besides, in assay [2], the “effect on active HIV-1 infection / transcription (GFP MCF)” value is “without boosting active HIV-1 infection”. Besides, the “effect on active HIV-1 infection / transcription (GFP MCF)” value in assay [2] (listed as Dactinomycin) is on record as “did not boost active infection, but rather inhibited active infection”. Besides, the “priming effect, virus integrated in converse transcriptional orientation” value in assay [3] was “exerted its priming effect in each integration scenario”. For the same molecule, in assay [4], the “concentration at which it starts to act as an inhibitor of HIV-1 expression and reactivation (onset of drug toxicities)” value is ≥ 10 ng/mL; the “priming effects with low concentrations of TNF-α or PMA as reactivating agents” value is listed as “also observed”. For the same molecule, the “concentration of optimal priming activity” value in assay [4] (18 hours pretreatment, then sub-optimal HRF or TNF-α) was “about 4 ng/ml and ~3.18 nM”. Moreover, the “priming effect, virus integrated in same transcriptional orientation as host-gene” value in assay [4] (TNF-α after 4 ng/ml dactinomycin for 18 hours) is on record as “exerted its priming effect in each integration scenario”. In assay [4] (pretreatment with increasing concentrations, then sub-optimal HRF), the “priming effect on HIV-1 reactivation by sub-optimal dose of HRF” value was “strong priming effect”. In assay [4] (then sub-optimal HRF or TNF-α), the “lowest concentration at which a priming effect was observed” value is 0.5 ng/mL. Moreover, the “priming for reactivation in combination with sub-optimal TNF-α” value in assay [5] (18 hours pretreatment) was “potently primed latent HIV-1 infection for reactivation”. In addition, in assay [5] (no activator), the “HIV-1 reactivating capacity by itself” value is “did not exhibit HIV-1 reactivating capacity by itself”.
Turning to lipopolysaccharide, the results for the “reactivation of latent HIV-1 infection” value in assay [6] and in assay [7] were “reactivated HIV-1 infection” and “only reactivated HIV-1 infection in the latently HIV-1 infected monocytic THP89GFP cells”, respectively.

B1: HEXIM-1 (other, UniProt O94992 1-359, looked up)
chain: MAEPFLSEYQHQPQTSNCTGAAAVQEELNPERPPGAEERVPEEDSRWQSRAFPQLGGRPGPEGEGSLESQPPPLQTQACPESSCLREGEKGQNGDDSSAGGDFPPPAEVEPTPEAELLAQPCHDSEASKLGAPAAGGEEEWGQQQRQLGKKKHRRRPSKKKRHWKPYYKLTWEEKKKFDEKQSLRASRIRAEMFAKGQPVAPYNTTQFLMDDHDQEEPDLKTGLYSKRAAAKSDDTSDDDFMEEGGEEDGGSDGMGGDGSEFLQRDFSETYERYHTESLQNMSKQELIKEYLELEKCLSRMEDENNRLRLESKRLGGDDARVRELELELDRLRAENLQLLTENELHRQQERAPLSKFGD
For B1, the binding result in assay [8] is on record as “binds”.
